Common to all, as to assay: Postemergence foliar-applied herbicidal activity in direct seeded rice (Example 16)
Common to all, as to format: in vivo

In test [1] the test system is Brachiaria platyphylla (GRISEB.) NASH (broadleaf signalgrass). Conditions: BRAPP, probit analysis; for GR50: 50% growth reduction; for GR80: 80% growth reduction; for GR90: 90% growth reduction. An outline of the steps: (§1)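 Greenhouse plants at 2nd–3rd true leaf stage (10–17 d, ~29/26 °C, 14-h photoperiod) sprayed postemergence with ester forms in acetone–DMSO plus 1.25% crop oil concentrate at 187 L/ha. Visual injury scored 0–100% versus untreated plants after 3 weeks; GR50/GR80 derived by probit analysis.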

The test system of test [2] is Scirpus juncoides ROXB. (Japanese bulrush). The following applies: Schoenoplectiella juncoides, post-emergence, 504 h, read-out: Visual Injury (%) SCPJU. A digest of the protocol: as §1
Test [3] has as its system Echinochloa crus-galli (L.) P.BEAUV. (barnyardgrass). Conditions: ECHCG, probit analysis; for GR50: 50% growth reduction; for GR80: 80% growth reduction; for GR90: 90% growth reduction. An outline of the steps:
as §1

For test [4], the system named is Cyperus difformis L. (small-flower flatsedge). Conditions: post-emergence, 504 h, read-out: Visual Injury (%) CYPDI. A digest of the protocol:
as §1

Test [5] has as its system Polygonum pensylvanicum L. (Pennsylvania smartweed). The following applies: POLPY, probit analysis; for GR50: 50% growth reduction; for GR80: 80% growth reduction; for GR90: 90% growth reduction. An outline of the steps:
as §1

Test [6] deals with Cyperus iria L. (rice flatsedge). The following applies: rice cropping systems, 8.75 g ae/ha, 21 DAA, may represent multiple trials. An outline of the steps:
as §1

[7] abbreviates: rice cropping systems, foliar-applied, 8.75 g ae/ha, 21 DAA, may represent multiple trials.

Read-outs that look alike come from different tables or passages of the source.

Experimental findings from US9169217B2, “Arylalkyl esters of 4-amino-6-(substituted phenyl)-picolinates and 6-amino-2-(substituted phenyl)-pyrimidinecarboxylates and their use as selective herbicides for crops” (Dow AgroSciences LLC, priority 2011, dated 2015) are described below.

For `COC(=O)c1nc(-c2ccc(Cl)c(OC)c2F)c(F)c(N)c1Cl` [E, methyl 4-amino-3-chloro-6-(4-chloro-2-fluoro-3-methoxyphenyl)-5-fluoropicolinate, reference compound], the figures for the GR50 in test [1], in test [3] and in test [5] were less than 4.38 g ae/ha, 3.7 g ae/ha and 30.7 g ae/ha, respectively. Besides, the GR80 is listed as 22.7 g ae/ha in test [1], 17.1 g ae/ha in test [3] and greater than 70 g ae/ha in test [5]. Besides, the GR90 in test [1] is listed as 84.3 g ae/ha; in test [3], 38.1 g ae/ha; in test [5] it was greater than 70 g ae/ha. In addition, the results for the pest or weed control at 8.75 g/ha in test [2] (setting [7]) and in test [4] (setting [7]) were 61% and 89%, respectively.
For `Nc1c(F)c(-c2ccc(C3CC3)cc2)nc(C(=O)OCc2ccccc2)c1Cl` [Compound 42, benzyl 4-amino-3-chloro-6-(4-cyclopropylphenyl)-5-fluoropicolinate], the “Visual Injury (%) CYPIR” value in test [6] came out at 100%.
Still for that read-out and setting: with `COC(=O)c1nc(-c2ccc(C3CC3)cc2)c(F)c(N)c1Cl` [Compound B, methyl 4-amino-3-chloro-6-(4-cyclopropylphenyl)-5-fluoropicolinate] the figure was 60%.
As to `COc1c(Cl)ccc(-c2nc(C(=O)OCc3ccccc3)c(Cl)c(N)c2F)c1F` [Compound 1, benzyl 4-amino-3-chloro-6-(4-chloro-2-fluoro-3-methoxyphenyl)-5-fluoropicolinate], the GR50 is less than 4.38 g ae/ha in test [1], less than 4.38 g ae/ha in test [3] and less than 8.75 g ae/ha in test [5]. The GR80 in test [1] is reported as 9.9 g ae/ha; in test [3] it was less than 4.38 g ae/ha; in test [5], 19.7 g ae/ha. Moreover, the results for the GR90 in test [1], in test [3] and in test [5] were 26.0 g ae/ha, 6.1 g ae/ha and 46.7 g ae/ha, respectively. The pest or weed control at 8.75 g/ha in test [2] was 93%; in test [4], 100%.
